Calls of active or inactive are those of the source. No rule for the calls is given here.
Test system: rodent carcinogenicity bioassays, tumor incidence
Assay: CCRIS carcinogenicity studies
Source text: The CCRIS database contains chemical records with carcinogenicity, mutagenicity, tumor promotion, and tumor inhibition test results. It was developed by the National Cancer Institute (NCI). Data are derived from studies cited in primary journals, current awareness tools, NCI reports, and other sources. Test results have been reviewed by experts in carcinogenesis and mutagenesis.
CCRIS provides historical information from the years 1985 - 2011. It is no longer updated.
This is an archive assay for CCRIS carcinogenicity studies.

Measured: carcinogen call

COc1cc2c(c3oc4cccc(O)c4c(=O)c13)[C@@H]1C=CO[C@@H]1O2
active: Species: MOUSE, Route: ORAL, Tumor Site: Type of Lesion: LUNG active; positive | Species: MOUSE, Strain/Sex: DBF1/FEMALE, Route: ORAL, Dose: 0, 30, 120 PPM IN DIET FOR 55 OR 51 WK, STUDY DURATION: 73 WK, Dose: 0, 30, 120 PPM IN DIET FOR 55 OR 51 WK, STUDY DURATION: 73 WK, Tumor Site: Type of Lesion: LIVER: HEMANGIOENDOTHELIOMA, ANGIOSARCOMA, LUNG: ADENOMA, INTEGUMENTARY SYSTEM (SUBCUTANEOUS TISSUE): ANGIOSARCOMA, Tumor Site: Type of Lesion: LIVER: HEMANGIOENDOTHELIOMA, ANGIOSARCOMA, LUNG: ADENOMA, INTEGUMENTARY SYSTEM (SUBCUTANEOUS TISSUE): ANGIOSARCOMA active; positive | Species: RAT, Route: DERMAL, Tumor Site: Type of Lesion: INTEGUMENTARY SYSTEM (SKIN) active; positive | Species: RAT, Route: ORAL, Tumor Site: Type of Lesion: LIVER active; positive | Species: RAT, Route: SUBCUTANEOUS, Tumor Site: Type of Lesion: INJECTION SITE active; positive

CCCc1ccc2c(c1)OCO2
active: Species: MOUSE, Route: ORAL, Tumor Site: Type of Lesion: LIVER, LUNG active; positive | Species: RAT, Route: ORAL, Tumor Site: Type of Lesion: ESOPHAGUS active; positive

Nc1nc(/C=C/c2ccc([N+](=O)[O-])o2)no1
active: Species: MOUSE, Strain/Sex: CD-1/FEMALE, Route: GAVAGE, Dose: 0, 41, 82, 173 MG/KG/D SUSPENDED IN 25% GLYCEROL 4 D/WK FOR 371 D (TOTAL DOSE 0; 15.4; 30.9; 64.2 G) (STUDY DURATION: LI, Dose: 0, 41, 82, 173 MG/KG/D SUSPENDED IN 25% GLYCEROL 4 D/WK FOR 371 D (TOTAL DOSE 0; 15.4; 30.9; 64.2 G) (STUDY DURATION: LI, Tumor Site: Type of Lesion: THYMUS: LYMPHOMA, BLADDER: TRANSITIONAL CELL CARCINOMA, STOMACH: SQUAMOUS CELL CARCINOMA, SQUAMOUS PAPILLOMA, LUNG: ADEN, Tumor Site: Type of Lesion: THYMUS: LYMPHOMA, BLADDER: TRANSITIONAL CELL CARCINOMA, STOMACH: SQUAMOUS CELL CARCINOMA, SQUAMOUS PAPILLOMA, LUNG: ADEN active; positive | Species: MOUSE, Strain/Sex: CD-1/FEMALE, Route: ORAL, Dose: 0, 0.17% IN DIET FOR 58 WK (STUDY DURATION: 91 WK), Tumor Site: Type of Lesion: HEMATOPOIETIC SYSTEM: LYMPHOMA, THYMUS: LYMPHOMA, STOMACH: SQUAMOUS CELL CARCINOMA, SPINDLE CELL TUMOR, Tumor Site: Type of Lesion: HEMATOPOIETIC SYSTEM: LYMPHOMA, THYMUS: LYMPHOMA, STOMACH: SQUAMOUS CELL CARCINOMA, SPINDLE CELL TUMOR active; positive | Species: MOUSE, Strain/Sex: CD-1/FEMALE, Route: ORAL, Dose: 0, 0.25% IN DIET FOR 31 WK (STUDY DURATION: LIFE), Tumor Site: Type of Lesion: THYMUS: LYMPHOMA, STOMACH: SQUAMOUS CELL CARCINOMA, LUNG: ADENOMA, MAMMARY GLAND: ADENOCARCINOMA, Tumor Site: Type of Lesion: THYMUS: LYMPHOMA, STOMACH: SQUAMOUS CELL CARCINOMA, LUNG: ADENOMA, MAMMARY GLAND: ADENOCARCINOMA active; positive | Species: MOUSE, Strain/Sex: CD-1/MALE, Route: GAVAGE, Dose: 0, 45, 87, 185 MG/KG/D SUSPENDED IN 25% GLYCEROL 4 D/WK FOR 371 D (TOTAL DOSE 0; 16.8; 32.3; 68.8 G) (STUDY DURATION: LI, Dose: 0, 45, 87, 185 MG/KG/D SUSPENDED IN 25% GLYCEROL 4 D/WK FOR 371 D (TOTAL DOSE 0; 16.8; 32.3; 68.8 G) (STUDY DURATION: LI, Tumor Site: Type of Lesion: THYMUS: LYMPHOMA, BLADDER: TRANSITIONAL CELL CARCINOMA, STOMACH: SQUAMOUS CELL CARCINOMA, SQUAMOUS PAPILLOMA, LUNG: ADEN, Tumor Site: Type of Lesion: THYMUS: LYMPHOMA, BLADDER: TRANSITIONAL CELL CARCINOMA, STOMACH: SQUAMOUS CELL CARCINOMA, SQUAMOUS PAPILLOMA, LUNG: ADEN active; positive | Species: MOUSE, Strain/Sex: CD-1/MALE, Route: ORAL, Dose: 0, 0.18% IN DIET FOR 58 WK (STUDY DURATION: 92 WK), Tumor Site: Type of Lesion: THYMUS: LYMPHOMA, BLADDER: TRANSITIONAL CELL CARCINOMA, STOMACH: SQUAMOUS CELL CARCINOMA, SPINDLE CELL TUMOR, Tumor Site: Type of Lesion: THYMUS: LYMPHOMA, BLADDER: TRANSITIONAL CELL CARCINOMA, STOMACH: SQUAMOUS CELL CARCINOMA, SPINDLE CELL TUMOR active; positive | Species: MOUSE, Strain/Sex: CD-1/MALE, Route: ORAL, Dose: 0, 0.25% IN DIET FOR 38 WK (STUDY DURATION: LIFE), Tumor Site: Type of Lesion: THYMUS: LYMPHOMA, BLADDER: TRANSITIONAL CELL CARCINOMA, SPINDLE CELL TUMOR, STOMACH: SQUAMOUS CELL CARCINOMA, SQUAMOUS P, Tumor Site: Type of Lesion: THYMUS: LYMPHOMA, BLADDER: TRANSITIONAL CELL CARCINOMA, SPINDLE CELL TUMOR, STOMACH: SQUAMOUS CELL CARCINOMA, SQUAMOUS P active; positive

CCCCCC(O)/C=C/C=O (stereo not given)
inactive: Species: MOUSE, Strain/Sex: B6C3F1/FEMALE, Route: INTRAPERITONEAL, Dose: 0, 750 NMOL TOTAL DOSE, 1/3 AND 2/3 OF THE TOTAL DOSE ADMINISTERED AT 8 AND 15 DAYS OF AGE RESPECTIVELY, ANIMALS TERMINA inactive; negative | Species: MOUSE, Strain/Sex: B6C3F1/FEMALE, Route: INTRAPERITONEAL, Dose: 0, 1500 NMOL TOTAL DOSE, 1/3 AND 2/3 OF THE TOTAL DOSE ADMINISTERED AT 8 AND 15 DAYS OF AGE RESPECTIVELY, ANIMALS TERMIN inactive; negative | Species: MOUSE, Strain/Sex: B6C3F1/MALE, Route: INTRAPERITONEAL, Dose: 0, 750 NMOL TOTAL DOSE, 1/3 AND 2/3 OF THE TOTAL DOSE ADMINISTERED AT 8 AND 15 DAYS OF AGE RESPECTIVELY, ANIMALS TERMINA inactive; negative | Species: MOUSE, Strain/Sex: B6C3F1/MALE, Route: INTRAPERITONEAL, Dose: 0, 1500 NMOL TOTAL DOSE, 1/3 AND 2/3 OF THE TOTAL DOSE ADMINISTERED AT 8 AND 15 DAYS OF AGE RESPECTIVELY, ANIMALS TERMIN inactive; negative | Species: MOUSE, Strain/Sex: CD-1/FEMALE, Route: INTRAPERITONEAL, Dose: 0, 50, 100, 200 NMOL/MOUSE (TOTAL DOSE) ADMINISTERED IN 3 DOSES ON DAY 1, 8 AND 15 OF STUDY (STUDY DURATION: 6 WK), Dose: 0, 50, 100, 200 NMOL/MOUSE (TOTAL DOSE) ADMINISTERED IN 3 DOSES ON DAY 1, 8 AND 15 OF STUDY (STUDY DURATION: 6 WK) inactive; negative | Species: MOUSE, Strain/Sex: CD-1/MALE, Route: INTRAPERITONEAL, Dose: 0, 50, 100, 200 NMOL/MOUSE (TOTAL DOSE) ADMINISTERED IN 3 DOSES ON DAY 1, 8 AND 15 OF STUDY (STUDY DURATION: 6 WK), Dose: 0, 50, 100, 200 NMOL/MOUSE (TOTAL DOSE) ADMINISTERED IN 3 DOSES ON DAY 1, 8 AND 15 OF STUDY (STUDY DURATION: 6 WK) inactive; negative

CC(N)=O
active: Species: RAT, Strain/Sex: WISTAR/MALE, Route: ORAL, Dose: 1.25, 2.5, 5% IN DIET FOR ONE YR, Dose: 1.25, 2.5, 5% IN DIET FOR ONE YR, Tumor Site: Type of Lesion: LIVER: TRABECULAR CARCINOMA, ADENOCARCINOMA, HEPATOMA active; positive
